# According to US20190111107A1, “METHODS FOR MODULATING INTESTINAL MICROBIOTA” (DEFENSIN THERAPEUTICS APS, priority 2016, published 2019):
# Entries after “also recorded” stand apart in the source; their conditions may differ. Positions of bridges follow the written chain, without caps; N, C: chain ends. No end group written: not given here.
# Tests used:
# [1] = tested on: diet-induced obese mice; test: Interventional treatment with defensins in diet-induced obese mice: weight, fat percentage, glucose homeostasis; assay type: in vivo, C57/BL/6J mice; conditions: for fat percentage / change in fat percentage compared with HFD control: 4 weeks after dietary intervention; for Glucose Tolerance Test after start of intervention: OGTT repeated biweekly from week 13-0; for Insulin Tolerance Test: insulin sensitivity compared with HFD control group: week 9, p<0.05
# Text: FIG. 1B. Schematic outline of the experimental set up for investigating the effects of mammalian alfa and/or beta defensins on mice metabolism. At week −1, the C57/BL/6J mice arrived. At week 0 feces was collected. During run-in between week 0 and week 12 the mice were fed a high fat diet. At week 12 the mice were clinically examined by magnetic resonance scan to estimate fat distribution, feces was collected and oral glucose tolerance test (OGTT) and glucose-stimulated insulin secretion (GSIS) performed. At week 13-0 the mice were divided in groups and cages with 4 mice percage and 3 cages per group. At week 0, 12 and 13-10, the microbiome of the faeces was analysed. At week 13-2, 13-4, 13-6, 13-8 and 13-10 the mice were scanned and blood glucose and insulin levels were measured. At week 13-9, insulin tolerance test (ITT) was conducted. At week 13-10 (termination), several analyses were conducted, in particular the mice were weighed and scanned, and plasma composition and microbiota composition of colon, cecum and small intestine were assessed. In addition, iWAT, eWAT and liver weight were measured.
# Mice and diets. The experiment elucidates the effect of hBD-2 and HD5 in the treatment of metabolic syndrome (MetS) in diet-induced obese mice. A run-in period of 13 weeks where mice were fed a very HFD (60% energy from fat) preceded the intervention. Only mice meeting the criteria of a minimum of 12 gram weight gain (approximately 50% of initial bodyweight) during the run-in period were included in the final analyses. […] They were exposed to all experimental tests, but excluded from the analyses.
# Treatment regimen (FIG. 1B). Before the intervention all mice were MR scanned and an OGTT was performed. Cages of mice were allocated to experimental groups based on their fat mass. All subsequent measures were paired with data from the same mouse before the intervention.
# A LFD (low fat diet) reference group was running in parallel. As controls for the intervention 2 additional groups were included: 1 very HFD and 1 LFD. Experimental mice stayed on the very HFD during the intervention. The mice were on the experimental diet for 10 weeks. They were co-housed throughout the experiment, 4 mice per cage, 3 cages per group. All tests ran over 3 days, 1 cage per group per day.
# [2] = tested on: mice fed a high fat diet; test: Prophylactic treatment with defensins in mice fed a high fat diet: weight, lean/fat mass, glucose homeostasis; assay type: in vivo, C57/BL/6J mice; conditions: for weight gain compared with HFD reference group: 10 week study, defensin in HFD, 1,2mg hBD2 per kg mouse per day, HD5 equimolar; for visceral fat (eWAT) compared with HFD group / liver weight: at termination; for liver weight: vs HFD and LFD groups; for glucose-stimulated insulin secretion compared with HFD control mice: during the glucose challenge; for Glucose Tolerance test compared with HFD group: oral glucose tolerance test; for HOMA-IR index compared with HFD group: week 9
# Experimental: Schematic outline of the experimental set up for investigating the effects of mammalian alfa and/or beta defensins on mice metabolism. At week −1, the C57/BL/6J mice were divided in groups and cages, so that there were 3 mice per cage and cages per group. Between week −1 and 0, the mice were clinically examined by magnetic resonance scan to estimate fat distribution. […] At week 4, in addition to analysis of the microbiota, the mice were scanned and blood glucose and insulin levels were measured. […] At week 7, insulin tolerance test (ITT) was conducted. At week 8, oral glucose tolerance test (OGTT) and glucose-stimulated insulin secretion (GSIS) were conducted. At week 9 (termination), several analyses were conducted, in particular the mice were weighed and scanned, and plasma composition and microbiota composition of colon, cecum and small intestine were assessed.
# Mice: Mice were housed in trios, 4 cages per group. Feed intake was registered daily just before lights were turned off (6 pm). Individual mice were subjected to experimental procedures in altered order both group and cage wise. Mice were kept at room temperature under a 12-hour light/dark cycle at SPF standard conditions.
# Diets: For dosing, the average weight was estimated to be 25 grams per mouse. They eat approximately 3 grams of feed per mouse per day.
# Treatment regime (FIG. 1A): Mice were fed either a high fat diet (HFD) or a low fat (LF) control diet. The HFD contains 4 subgroups; 1 hBD2, 1 HD5, 1 hBD2/HD5 and 1 standard HFD without supplementation of defensins. Defensin concentration is 1,2mg hBD2 per kg mouse per day. HD5 is given in equimolar concentration to hBD2.
# [3] = Pharmacokinetic study of hBD-2 after single oral gavage; assay type: in vivo, female NMRI mice
# Experimental: FIG. 28. Pharmacokinetic data following oral administration of 4 mg/kg hBD-2 to female NMRI mice. […] The results are given as group mean +/−SEM.
# Pharmacokinetic study to determine oral bioavailability and establish pharmacokinetic profile of hBD-2 following single oral gavage of 4 mg/kg administration to NMRI mice.
# Treatment regimen: 21 female NMRI mice were dosed by oral gavage 5 ml/kg using a gavage tube and a 1 ml syringe according to the individual body weight obtained on the day of dosing. Urine was strived sampled at random time points by gently massaging the inguinal area of the abdomen. The first blood sample was taken using a submandibular sampling method. The second blood sample was collected from Isoflurane anaesthetised mice. Intestinal samples were taken after euthanasia. The abdomen of each mouse was opened and three sections (jejunum, duodenum, and colon) of the intestines were sampled.
# [4] = tested on: isolated hepatocytes; conditions: Liu et al. (2008); cited from earlier work
# [5] = tested on: intestinal microbiota; test: Longitudinal 16S characterization of intestinal microbiota under prophylactic defensin treatment; assay type: in vivo, mice
# Text: FIG. 21A and 21B. The figures illustrate changes from week 1 (Wk1) to week 10 (Wk10) for the four treatments in Example 1: High fat diet with HD5-HF HD5; high fat diet with hBD2−HD hBD2; High fat diet—no treatment: HF; Low fat diet: LF. Weighted unifrac analysis of microbiota at week 1 (21A) and week 10 (21 B) i.e. relative abundance of bacterial species. […] Abbreviations: Wk 1—week 1; W10—week 10.
# FIG. 21C. Illustration of the species of microbiota contributing to the change. […] Allobaculum is a short chain fatty acid producing species. Lactobacillus is a bacteria with anti-inflammatory properties.
# Microbial analyses were carried out to study the microbiota of the intestine. Longitudinal 16S characterization was conducted on 4 paired samples from 60 mice, 240 samples in total. Each mouse was sampled prior to diet change, 1 week post diet change, 4 weeks post diet change and at termination, thus ensuring a thorough characterization of the faecal microbiota as a result of defensin treatment.
# [6] = tested on: Dextran Sodium Sulphate (DSS) induced colitis; test: Acute 10-day Dextran Sodium Sulphate (DSS) induced colitis model, hBD-2-albumin fusion C-terminal; assay type: in vivo, mice; conditions: active control
# Experimental: To determine and assess the anti-inflammatory effect of “hBD-2-albumin fusion C-terminal” in an acute 10-day Dextran Sodium Sulphate (DSS) induced colitis model in mice.
# Treatment regimen: “hBD-2-albumin C-terminal” was administered intravenously via the tail vein or subcutaneously with the use of a sterile 25G needle in a dosing volume of 10 ml/kg body weight. The animals received 1 dose daily for 10 […] days. The active control Prednisolone (Pred) was given orally by gavage at a dose of 1 mg/kg in a dosing volume of 10 ml/kg body weight OD.
molecule,measurement,setting,value
"GIGDPVTCLKSGAICHPVFCPRRYKQIGTCGLPGTKCCKKP (disulfide 8-37, 15-30, 20-38 (inferred)) [hBD-2, human beta defensin 2]",fat percentage / change in fat percentage compared with HFD control,[1],significantly smaller
same,Glucose Tolerance Test after start of intervention,[1],smaller peak in blood glucose as well as a faster clearance of glucose already after 2 weeks
same,obese and glucose intolerant mice that significantly improved their glucose tolerance,[1]; following 2 weeks of intervention,7/8
same,visceral fat (eWAT) at termination compared with HFD control,"[1]; mouse, in vivo",no significant difference in visceral fat (eWAT) between the HFD fed groups
same,weight gain the first 4 weeks post dietary intervention compared with standard HFD group,[1]; p=0.07,"tended to gain less weight the first 4 weeks post dietary intervention, although not significantly"
same,weight gain from week 4 to the end of the study period compared with standard HFD group,[1]; p=0.82,gained similar weight as the standard HFD group
same,Insulin Tolerance Test: insulin sensitivity compared with HFD control group,[1],more insulin sensitive compared to the HFD control group
same,share of the group with a smaller fat percentage than before the intervention,[1]; weeks 4 post dietary intervention,~75%
same,weight gain compared with HFD reference group,[2],gained significantly less weight than the HFD reference group
same,share of defensin-fed mice with a Body Fat Percent resembling LFD reference mice,[2]; 60% HFD,50%
same,visceral fat mass of the best protected mice compared with LFD reference mice,[2]; 60% HFD,same or smaller visceral fat mass than LFD reference mic
same,lean mass gained at the end of the study compared with HFD group,[2]; HFD plus hBD-2 vs HFD,gained the same amount of lean mass
same,fat mass at the end of the study compared to the LFD group,"[2]; HFD plus hBD-2 vs LFD, p=0.25",trended towards increased fat mass compared to the LFD group
same,visceral fat (eWAT) compared with HFD group,[2],significantly less visceral fat (eWAT) than the HFD group
same,liver weight,[2],no statistical difference between the three groups in terms of liver weight
same,Glucose Stimulated Insulin Secretion: insulin concentration compared with LFD group,"[2]; during the GTT, week 7",higher but not significantly different insulin concentration than the LFD group; also recorded: higher but not significantly different insulin concentration from the LFD group
same,glucose-stimulated insulin secretion compared with HFD control mice,[2],glucose stimulated insulin response during the glucose challenge was improved
same,amount of fat mass gained by the HFD group compared to the HFD plus hBD-2 group,"[2]; first analysis, p=0.005",2 times
same,Insulin Tolerance test: compared with LFD reference group,"[2]; mouse, in vivo",no statistical significant difference between the LFD reference group and the HFD plus hBD-2 group
same,Insulin Tolerance test: insulin sensitivity compared with HFD group,"[2]; mouse, in vivo",significantly more sensitive to insulin than the HFD group
same,Glucose Tolerance test compared with HFD group,[2]; week 7,slightly prolonged glucose clearance but reached significantly lower glucose levels than the HFD group
same,Glucose Tolerance test compared with HFD group,"[2]; week 7, listed as hBD2",Glucose tolerance was markedly improved compared to HFD control mice
same,Five Hour Fasting insulin: HFD group compared with HFD plus hBD-2 group,[2]; p=0.057,borderline significantly higher fasting insulin than the HFD plus hBD-2 group
same,Five Hour Fasting insulin: LFD compared with HFD plus hBD-2 group,[2]; p=0.17,no significant difference between the LFD and HFD plus hBD-2 groups
same,amount of fat mass in percent of total body weight gained by the HFD group compared to the HFD plus hBD-2 group,"[2]; re-analysis, p=0.005",two times
same,HOMA-IR index compared with HFD group,[2],statistically significantly lower
same,systemic availability after oral dosing,"[3]; 4 mg/kg oral, mice",not systemically available
same,time hBD2 remains detectable in the colon content after administration,[3]; oral 4 mg/kg,up to 360 minutes
"human neutrophil peptide 2 (CYCRIPACIAGERRYGTCIYQGRLWAFCC; ends and bridges not checked; cysteine pairing not given here; UniProt P59665 66-94, looked up) [HNP-2, α-defensin produced by leucocytes]",inhibition of glycogenolysis and gluconeogenesis,[4],able to inhibit glycogenolysis and gluconeogenesis in isolated hepatocytes
human intestinal alpha defensin 5 (ATCYCRTGRCATRESLSGVCEISGRLYRLCCR; listed as Homo sapiens) [HD5],microflora composition (weighted unifrac analysis) relative to LFD and non-treated HFD groups,"[5]; after 10 weeks, oral HD5 in HFD",gradually approached the bacterial flora of mice fed a LFD; also recorded: partial normalization of the microflora
same,abundance of bacterial genera in the intestinal microbiota compared with non-treated HFD mice,[5]; at termination,increased abundance of Allobaculum and Lactobacillus and a decrease in abundance of Clostridium
same,fat percentage / change in fat percentage compared with HFD control,[1],significantly lower fat percentage
same,fat percentage of total body weight over time,[1]; 10 weeks intervention,tendency of decreasing fat percentage
same,weight gain after dietary intervention compared with HFD control,[1]; 10 weeks on experimental diet,gained significantly less weight than the HFD control
same,Glucose Tolerance Test after start of intervention,[1],improved over time
same,visceral fat (eWAT) at termination compared with HFD control,"[1]; mouse, in vivo",not significantly different
same,weight of the liver at termination compared to the HFD control,"[1]; mouse, in vivo",tended to be decreased
same,Insulin Tolerance Test: insulin sensitivity compared with HFD control group,[1],more insulin sensitive than the HFD control
same,weight gain compared with HFD reference group,[2],"gained less weight than HFD-fed control mice (FIG. 17A), although the effect was not statistically significant"
same,visceral fat (eWAT) compared with HFD group,[2],borderline less visceral fat
same,liver weight,[2],No statistically significant difference with respect to liver weight
same,glucose-stimulated insulin secretion compared with HFD control mice,[2],no significant improvement
same,Insulin Tolerance test: insulin sensitivity compared with HFD group,"[2]; mouse, in vivo",no significant improvement
same,fat % compared with HFD-fed control mice,"[2]; mouse, in vivo",borderline less fat %
same,feed efficiency compared with HFD-fed control mice,"[2]; mouse, in vivo",tendency towards lower feed efficiency
same,Glucose Tolerance test compared with HFD group,[2]; week 7,no significant improvement
same,HOMA-IR index compared with HFD group,[2],no significant improvement
"C[C@]12C=CC(=O)C=C1CC[C@@H]1[C@@H]2[C@@H](O)C[C@@]2(C)[C@H]1CC[C@]2(O)C(=O)CO [Prednisolon, Prednisolone]",DAI,"[6]; 1 mg/kg orally by gavage daily, p<0.05",significant inhibition of the DAI on day 9
same,histological injury in the proximal part of the colon,[6]; 1 mg/kg orally daily,failed to significantly reduce histological injury in the proximal part of the colon
same,histological injury in the distal colon,"[6]; 1 mg/kg orally daily, p<0.01",did reduce the injury in the distal colon
human neutrophil peptide 1 [HNP-1],inhibition of glycogenolysis and gluconeogenesis,[4],able to inhibit glycogenolysis and gluconeogenesis in isolated hepatocytes
